Results taken from patent publication US20020137929A1, “1 - (3-heterocyclylphenyl) isothiourea, -isourea, -guanidine and -amidine herbicidal agents” (Intellectual Property Department, BASF Aktiengesellschaft, priority 1998, published 2002).

How the values were obtained:
CYPIR (Rice Flatsedge) = experiment: Preemergence weed control under flooded paddy conditions; type: in vivo, Cyperus iria; conditions: rated 3-4 weeks after treatment
How it was run: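 Ratings on a 0-9 visual scale cover stand, vigor, malformation, size, chlorosis and overall appearance relative to a control, taken three to four weeks post-treatment. Application was into flood water over freshly sown silt loam at roughly 0.0313 to 0.500 kg/ha.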

ABUTH (Velvetleaf) = experiment: Postemergence herbicidal evaluation; type: in vivo, Abutilon theophrasti; conditions: postemergence
How it was run: (§1)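 Each compound, dispersed in an acetone/water mix (50/50) carrying 0.5% TWEEN 20, is nozzle-sprayed at 40 psi on approximately two-week-old seedlings at about 0.0156–0.500 kg/ha. Plants are assessed 4–5 weeks afterward on a 0–9 scale relative to control; duplicate tests are averaged.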

ORYSAT (Rice, Tebonnet) = experiment: Postemergence herbicidal evaluation; type: in vivo, Oryza sativa, (L.) Tebonnet; conditions: postemergence
How it was run: as §1

GALAP (Galium) = experiment: Preemergence herbicidal evaluation; type: in vivo, Galium aparine; conditions: rated 4-5 weeks after treatment
How it was run: (§2)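 Sown cups got a single aqueous acetone spray of test compound (roughly 0.0156–0.500 kg/ha) before seedlings emerged. Evaluation, 4–5 weeks on, used a 0–9 visual scale covering plant stand, vigor, size, malformation, chlorosis and general appearance compared with controls.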

SETVI (Foxtail, Green) [1] = experiment: Preemergence herbicidal evaluation; type: in vivo, Setaria viridis; conditions: rated 4-5 weeks after treatment
How it was run: as §2

ZEAMX (Corn, Field) = experiment: Postemergence herbicidal evaluation; type: in vivo, Zea mays; conditions: postemergence
How it was run: as §1

SETVI (Foxtail, Green) [2] = experiment: Postemergence herbicidal evaluation; type: in vivo, Setaria viridis; conditions: postemergence
How it was run: as §1

[3] = test system: GLXMAW (Soybean, Williams); experiment: Postemergence herbicidal evaluation; type: in vivo, Glycine max, (L.) Merr. cv Williams; conditions: postemergence
How it was run: as §1

[4] = test system: SAGPY (Arrowhead (Pygmaea)); experiment: Postemergence weed control under flooded paddy conditions; type: in vivo, Sagittaria pygmaea; conditions: postemergence weeds, 3-4 weeks after treatment
How it was run: (§3)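 Flood-water application, about 0.0313–0.500 kg/ha a.i. in aqueous/acetone 50/50 v/v; water depth 1.5–3 cm throughout. Weeds 3–5 cm, rice 1.5–2.5 leaf. Greenhouse; 0–9 visual rating vs control at 3–4 wk.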

AMBEL (Ragweed, Common) = experiment: Preemergence herbicidal evaluation; type: in vivo, Ambrosia artemisifolia; conditions: rated 4-5 weeks after treatment
How it was run: as §2

[5] = test system: ECHORC (Watergrass (Calif.)); experiment: Postemergence weed control under flooded paddy conditions; type: in vivo, Echinochloa oryzoides; conditions: postemergence weeds, 3-4 weeks after treatment
How it was run: as §3

[6] = test system: TRZAWR (Wheat, Winter, cv Riband); experiment: Postemergence herbicidal evaluation; type: in vivo, Triticum aestivum; conditions: postemergence
How it was run: as §1

CYPSE (Flatsedge) = experiment: Postemergence weed control under flooded paddy conditions; type: in vivo, Cyperus serotinus; conditions: postemergence weeds, 3-4 weeks after treatment
How it was run: as §3

[7] = test system: CHEAL (Lambsquarters, Common); experiment: Postemergence herbicidal evaluation; type: in vivo, Chenopodium album; conditions: postemergence
How it was run: as §1

CCOC(=O)CN1C(=O)C(C)SC1=Nc1cc(-n2c(=O)cc(C(F)(F)F)n(C)c2=O)c(F)cc1Cl (centres unmarked) [Compound 12]
Herbicidal rating CYPIR (CYPIR (Rice Flatsedge); 0.0313 kg/ha): 0.0
Herbicidal rating CYPIR (CYPIR (Rice Flatsedge); 0.0625 kg/ha): 0.0
Herbicidal rating CYPIR (CYPIR (Rice Flatsedge); 0.1250 kg/ha): 1.0
Herbicidal rating CYPIR (CYPIR (Rice Flatsedge); 0.2500 kg/ha): 0.0
ABUTH herbicidal rating (ABUTH (Velvetleaf); rate 0.0156 kg/ha): 9.0
ABUTH herbicidal rating (ABUTH (Velvetleaf); rate 0.0313 kg/ha): 9.0
ABUTH herbicidal rating (ABUTH (Velvetleaf); rate 0.0625 kg/ha): 9.0
ABUTH herbicidal rating (ABUTH (Velvetleaf); rate 0.1250 kg/ha): 9.0
ORYSAT herbicidal rating (ORYSAT (Rice, Tebonnet); rate 0.0156 kg/ha): 2.5
ORYSAT herbicidal rating (ORYSAT (Rice, Tebonnet); rate 0.0313 kg/ha): 3.0
ORYSAT herbicidal rating (ORYSAT (Rice, Tebonnet); rate 0.0625 kg/ha): 3.0
ORYSAT herbicidal rating (ORYSAT (Rice, Tebonnet); rate 0.1250 kg/ha): 5.0
GALAP preemergence herbicidal rating (GALAP (Galium); rate 0.0156 kg/ha): 0.0
GALAP preemergence herbicidal rating (GALAP (Galium); rate 0.0313 kg/ha): 0.0
GALAP preemergence herbicidal rating (GALAP (Galium); rate 0.0625 kg/ha): 9.0
GALAP preemergence herbicidal rating (GALAP (Galium); rate 0.1250 kg/ha): 9.0
GALAP preemergence herbicidal rating (GALAP (Galium); rate 0.2500 kg/ha): 9.0
SETVI preemergence herbicidal rating (SETVI (Foxtail, Green) [1]; rate 0.0156 kg/ha): 8.5
SETVI preemergence herbicidal rating (SETVI (Foxtail, Green) [1]; rate 0.0313 kg/ha): 9.0
SETVI preemergence herbicidal rating (SETVI (Foxtail, Green) [1]; rate 0.0625 kg/ha): 9.0
SETVI preemergence herbicidal rating (SETVI (Foxtail, Green) [1]; rate 0.1250 kg/ha): 9.0
SETVI preemergence herbicidal rating (SETVI (Foxtail, Green) [1]; rate 0.2500 kg/ha): 9.0
ZEAMX herbicidal rating (ZEAMX (Corn, Field); rate 0.0156 kg/ha): 6.5
ZEAMX herbicidal rating (ZEAMX (Corn, Field); rate 0.0313 kg/ha): 7.0
ZEAMX herbicidal rating (ZEAMX (Corn, Field); rate 0.0625 kg/ha): 7.5
ZEAMX herbicidal rating (ZEAMX (Corn, Field); rate 0.1250 kg/ha): 8.0
SETVI herbicidal rating (SETVI (Foxtail, Green) [2]; rate 0.0156 kg/ha): 0.0
SETVI herbicidal rating (SETVI (Foxtail, Green) [2]; rate 0.0313 kg/ha): 4.0
SETVI herbicidal rating (SETVI (Foxtail, Green) [2]; rate 0.0625 kg/ha): 9.0
SETVI herbicidal rating (SETVI (Foxtail, Green) [2]; rate 0.1250 kg/ha): 9.0
GLXMAW herbicidal rating ([3]; rate 0.0156 kg/ha): 5.0
GLXMAW herbicidal rating ([3]; rate 0.0313 kg/ha): 7.0
GLXMAW herbicidal rating ([3]; rate 0.0625 kg/ha): 8.5
GLXMAW herbicidal rating ([3]; rate 0.1250 kg/ha): 8.0
Herbicidal rating SAGPY ([4]; rate 0.0313 kg/ha): 0.0
Herbicidal rating SAGPY ([4]; rate 0.0625 kg/ha): 1.0
Herbicidal rating SAGPY ([4]; rate 0.1250 kg/ha): 4.0
Herbicidal rating SAGPY ([4]; rate 0.2500 kg/ha): 0.0
AMBEL preemergence herbicidal rating (AMBEL (Ragweed, Common); rate 0.0156 kg/ha): 0.0
AMBEL preemergence herbicidal rating (AMBEL (Ragweed, Common); rate 0.0313 kg/ha): 4.5
AMBEL preemergence herbicidal rating (AMBEL (Ragweed, Common); rate 0.0625 kg/ha): 9.0
AMBEL preemergence herbicidal rating (AMBEL (Ragweed, Common); rate 0.1250 kg/ha): 9.0
AMBEL preemergence herbicidal rating (AMBEL (Ragweed, Common); rate 0.2500 kg/ha): 9.0
Herbicidal rating ECHORC ([5]; rate 0.0313 kg/ha): 5.0
Herbicidal rating ECHORC ([5]; rate 0.0625 kg/ha): 9.0
Herbicidal rating ECHORC ([5]; rate 0.1250 kg/ha): 8.5
Herbicidal rating ECHORC ([5]; rate 0.2500 kg/ha): 9.0
TRZAWR herbicidal rating ([6]; rate 0.0156 kg/ha): 5.5
TRZAWR herbicidal rating ([6]; rate 0.0313 kg/ha): 7.0
TRZAWR herbicidal rating ([6]; rate 0.0625 kg/ha): 7.5
TRZAWR herbicidal rating ([6]; rate 0.1250 kg/ha): 7.5
Herbicidal rating CYPSE (CYPSE (Flatsedge); rate 0.0313 kg/ha): 1.0
Herbicidal rating CYPSE (CYPSE (Flatsedge); rate 0.0625 kg/ha): 3.0
Herbicidal rating CYPSE (CYPSE (Flatsedge); rate 0.1250 kg/ha): 1.0
Herbicidal rating CYPSE (CYPSE (Flatsedge); rate 0.2500 kg/ha): 6.0
CHEAL herbicidal rating ([7]; rate 0.0156 kg/ha): 9.0
CHEAL herbicidal rating ([7]; rate 0.0313 kg/ha): 9.0
CHEAL herbicidal rating ([7]; rate 0.0625 kg/ha): 9.0
CHEAL herbicidal rating ([7]; rate 0.1250 kg/ha): 9.0
